Laboratory results reported in patent publication US20260347353A1, “INDOLIZINE DERIVATIVES FOR TREATING CANCER” (Antares Therapeutics, Inc., priority 2022, published 2026).

Experiments:
[1] = biological target: T1, p53 Y220C mutant protein (amino acid residues 94-293) (Homo sapiens, UniProt P04637, Y220C); experiment: Surface Plasmon Resonance (SPR) assay, p53 Y220C Kd_kinetic; conditions: multi-cycle kinetics, 16 or 20 °C, pH 7.5, 1:1 binding model
T1 construct: p53 Y220C mutant protein (amino acid residues 94-293)
T1 sequence (P04637 94-293, stated change not applied): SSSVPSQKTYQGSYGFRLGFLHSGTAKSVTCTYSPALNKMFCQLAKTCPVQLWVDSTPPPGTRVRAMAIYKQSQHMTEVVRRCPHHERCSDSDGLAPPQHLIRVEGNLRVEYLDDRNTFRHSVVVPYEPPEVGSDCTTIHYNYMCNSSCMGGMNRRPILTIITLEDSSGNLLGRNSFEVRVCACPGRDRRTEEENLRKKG
How it was run: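 Kd from multi-cycle SPR kinetics fitted to a 1:1 model, using 2-fold, 7-point compound series over p53 Y220C (residues 94-293). Flow 30 μL/min, 60 s association, 120 s dissociation, at 16 or 20 °C in 50 mM Tris pH 7.5, 100 mM NaCl, 1 mM DTT, 0.01% Brij35, 0.05% Tween-20, 1% DMSO.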

NUGC3 cells (p53 Y220C) = experiment: Cell Proliferation Assay (CellTiter-Glo), NUGC3 p53 Y220C; assay type: cell-based; conditions: Homo sapiens, NUGC-3, 120 h, 5 days, read-out: CTG NUGC3 P53 Y220C IC50
How it was run: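 Seeded at 250–500 cells/well, then compound-treated for 5 days; the NCIH1299 lines carry Tet-One inducible p53 Y220C or R273H transduced lentivirally. Viability by CellTiter-Glo luminescence after 10 min at room temperature; IC50 calculated.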

p53 Y220C = p53 Y220C (Homo sapiens, UniProt P04637, Y220C); experiment: Luciferase Reporter Assay, p53 Y220C (NCIH1299 cells with inducible p53 Y220C and p53 response element-luciferase); assay type: cell-based; conditions: 6 hour compound treatment, read-out: Luc P53 Y220C AC50
How it was run: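 NCI-H1299 cells stably carrying a p53 response element-luciferase reporter and Tet-inducible p53 Y220C were induced with 0.5 ug/mL doxycycline for 24 h, then treated with compound for 6 h. Luminescence was read after One-Glo addition. AC50 was derived relative to 10 uM tool compound as positive control.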

[2] = tested on: NCIH1299-inducible p53 Y220C cells; experiment: Cell Proliferation Assay (CellTiter-Glo), NCIH1299-inducible p53 Y220C; assay type: cell-based; conditions: Homo sapiens, NCI-H1299, 120 h, 5 days, read-out: CTG H1299 P53 Y220C IC50
Protocol: Inducible p53 Y220C and R273H constructs (Tet-One inducible expression system; Takara) were stably expressed in NCIH1299 cells by lentiviral transduction. NUGC3, A549, BxPC3, T3M4, HuH7, HCC2935, MFE296, NCIH1299, NCIH1299-inducible p53 Y220C, and NCIH1299-inducible p53 R273H cell lines were used for cell proliferation assay. 250-500 cells were seeded in each well of 384 plate and then compounds were dispensed into each well using Echo or Tecan. After 5 days of incubation, equal volume of CellTiter-Glo reagent (G7570; Promega) was added into each well and the plate was incubated at room temperature for 10 minutes with shaking. The luminescent signal was measured by PheraStar microplate reader and IC50 was calculated.

SMILES | Kd [1] | AC50 (p53 Y220C) | IC50 (NUGC3 cells (p53 Y220C)) | IC50 [2]
CN1CC[C@@H](Nc2cccn3c(SC(F)(F)F)c(-c4noc(CNC(=O)c5ccc6[nH]cc(C#N)c6c5)n4)cc23)[C@@H](F)C1 [Example 19, 3-cyano-N-{[3-(8-{[(3S,4R)-3-fluoro-1-methylpiperidin-4-yl]amino}-3-[(trifluoromethyl)sulfanyl]indolizin-2-yl)-1,2,4-oxadiazol-5-yl]methyl}-1H-indole-5-carboxamide] | 10 to 100 nM | 750 to 1500 nM | < 750 nM | < 750 nM
CN1CC[C@@H](Nc2cccn3c(SC(F)(F)F)c(-c4noc(CNC(=O)c5ccc(C#N)s5)n4)cc23)[C@@H](F)C1 [Example 39, 5-cyano-N-{[3-(8-{[(3S,4R)-3-fluoro-1-methylpiperidin-4-yl]amino}-3-[(trifluoromethyl)sulfanyl]indolizin-2-yl)-1,2,4-oxadiazol-5-yl]methyl}thiophene-2-carboxamide] | 10 to 100 nM | 750 to 1500 nM | < 750 nM | < 750 nM
CN1CC[C@@H](Nc2cccn3c(SC(F)(F)F)c(-c4noc(CNC(=O)C5(F)CCOCC5)n4)cc23)[C@@H](F)C1 [Example 36, 4-fluoro-N-{[3-(8-{[(3S,4R)-3-fluoro-1-methylpiperidin-4-yl]amino}-3-[(trifluoromethyl)sulfanyl]indolizin-2-yl)-1,2,4-oxadiazol-5-yl]methyl}oxane-4-carboxamide] | 10 to 100 nM | 1500 to 3000 nM | 1500 to 3000 nM | 1500 to 3000 nM
COc1ccc2[nH]nc(C(=O)NCc3nc(-c4cc5c(N[C@@H]6CCN(C)C[C@@H]6F)cccn5c4SC(F)(F)F)no3)c2c1 [Example 21, N-{[3-(8-{[(3S,4R)-3-fluoro-1-methylpiperidin-4-yl]amino}-3-[(trifluoromethyl)sulfanyl]indolizin-2-yl)-1,2,4-oxadiazol-5-yl]methyl}-5-methoxy-1H-indazole-3-carboxamide] | 100 to 1000 nM | 1500 to 3000 nM | 1500 to 3000 nM | 1500 to 3000 nM
CN1CC[C@@H](Nc2cccn3c(SC(F)(F)F)c(-c4noc(CNC(=O)C56CC(NC(=O)OC(C)(C)C)(C5)C6)n4)cc23)[C@@H](F)C1 [Example 45, tert-butyl N-[3-({[3-(8-{[(3S,4R)-3-fluoro-1-methylpiperidin-4-yl]amino}-3-[(trifluoromethyl)sulfanyl]indolizin-2-yl)-1,2,4-oxadiazol-5-yl]methyl}carbamoyl)bicyclo[1.1.1]pentan-1-yl]carbamate] | 10 to 100 nM | ≥ 3000 nM | 1500 to 3000 nM | ≥ 3000 nM
CN1CC[C@@H](Nc2cccn3c(SC(F)(F)F)c(-c4noc(CNC(=O)C5(C(F)(F)F)CC5)n4)cc23)[C@@H](F)C1 [Example 47, N-{[3-(8-{[(3S,4R)-3-fluoro-1-methylpiperidin-4-yl]amino}-3-[(trifluoromethyl)sulfanyl]indolizin-2-yl)-1,2,4-oxadiazol-5-yl]methyl}-1-(trifluoromethyl)cyclopropane-1-carboxamide] | 10 to 100 nM | ≥ 3000 nM | ≥ 3000 nM | ≥ 3000 nM
C[C@H](NC(=O)C1CC1)c1nc(-c2cc3c(N[C@@H]4CCN(C)C[C@@H]4F)cccn3c2SC(F)(F)F)no1 [Example 52, N-[(1S)-1-[3-(8-{[(3S,4R)-3-fluoro-1-methylpiperidin-4-yl]amino}-3-[(trifluoromethyl)sulfanyl]indolizin-2-yl)-1,2,4-oxadiazol-5-yl]ethyl]cyclopropanecarboxamide] | 10 to 100 nM | ≥ 3000 nM | ≥ 3000 nM | ≥ 3000 nM
CN1CC[C@@H](Nc2cccn3c(SC(F)(F)F)c(-c4noc(CNC(=O)[C@@H]5COCCO5)n4)cc23)[C@@H](F)C1 [Example 11, (2S)—N-{[3-(8-{[(3S,4R)-3-fluoro-1-methylpiperidin-4-yl]amino}-3-[(trifluoromethyl)sulfanyl]indolizin-2-yl)-1,2,4-oxadiazol-5-yl]methyl}-1,4-dioxane-2-carboxamide] | < 10 nM | 750 to 1500 nM | 750 to 1500 nM | 750 to 1500 nM
COC1(C(=O)NCc2nc(-c3cc4c(N[C@@H]5CCN(C)C[C@@H]5F)cccn4c3SC(F)(F)F)no2)CC1 [Example 26, N-{[3-(8-{[(3S,4R)-3-fluoro-1-methylpiperidin-4-yl]amino}-3-[(trifluoromethyl)sulfanyl]indolizin-2-yl)-1,2,4-oxadiazol-5-yl]methyl}-1-methoxycyclopropane-1-carboxamide] | 10 to 100 nM | 1500 to 3000 nM | 1500 to 3000 nM | 1500 to 3000 nM
CN1CC[C@@H](Nc2cccn3c(SC(F)(F)F)c(-c4nsc(CNC(=O)c5cnn(C(C)(C)C)c5)n4)cc23)[C@@H](F)C1 [Example 5, 1-tert-butyl-N-{[3-(8-{[(3S,4R)-3-fluoro-1-methylpiperidin-4-yl]amino}-3-[(trifluoromethyl)sulfanyl]indolizin-2-yl)-1,2,4-thiadiazol-5-yl]methyl}pyrazole-4-carboxamide] | 100 to 1000 nM | ≥ 3000 nM | ≥ 3000 nM | ≥ 3000 nM

More lines, main results first:

Kd [1] | AC50 (p53 Y220C) | SMILES | IC50 (NUGC3 cells (p53 Y220C)) | IC50 [2]
< 10 nM | < 750 nM | CN1CC[C@@H](Nc2cccn3c(SC(F)(F)F)c(-c4noc(CNC(=O)c5cnn(C(C)(C)C)c5)n4)cc23)[C@@H](F)C1 [Example 2, 1-tert-butyl-N-{[3-(8-{[(3S,4R)-3-fluoro-1-methylpiperidin-4-yl]amino}-3-[(trifluoromethyl)sulfanyl]indolizin-2-yl)-1,2,4-oxadiazol-5-yl]methyl}pyrazole-4-carboxamide] | < 750 nM | < 750 nM
< 10 nM | < 750 nM | CN1CC[C@@H](Nc2cccn3c(SC(F)(F)F)c(-c4noc(CNC(=O)C5CC5)n4)cc23)[C@@H](F)C1 [Example 3, N-{[3-(8-{[(3S,4R)-3-fluoro-1-methylpiperidin-4-yl]amino}-3-[(trifluoromethyl)sulfanyl]indolizin-2-yl)-1,2,4-oxadiazol-5-yl]methyl}cyclopropanecarboxamide] | < 750 nM | < 750 nM
< 10 nM | < 750 nM | CN1CC[C@@H](Nc2cccn3c(SC(F)(F)F)c(-c4noc(CNC(=O)c5cnc(N(C)C)o5)n4)cc23)[C@@H](F)C1 [Example 12, 2-(dimethylamino)-N-{[3-(8-{[(3S,4R)-3-fluoro-1-methylpiperidin-4-yl]amino}-3-[(trifluoromethyl)sulfanyl]indolizin-2-yl)-1,2,4-oxadiazol-5-yl]methyl}-1,3-oxazole-5-carboxamide] | < 750 nM | < 750 nM
< 10 nM | < 750 nM | CN1CC[C@@H](Nc2cccn3c(SC(F)(F)F)c(-c4noc(CNC(=O)c5csc(N6CCOCC6)n5)n4)cc23)[C@@H](F)C1 [Example 20, N-{[3-(8-{[(3S,4R)-3-fluoro-1-methylpiperidin-4-yl]amino}-3-[(trifluoromethyl)sulfanyl]indolizin-2-yl)-1,2,4-oxadiazol-5-yl]methyl}-2-(morpholin-4-yl)-1,3-thiazole-4-carboxamide] | < 750 nM | < 750 nM
< 10 nM | 750 to 1500 nM | CN1CC[C@@H](Nc2cccn3c(SC(F)(F)F)c(-c4noc(CNC(=O)N5CCOCC5)n4)cc23)[C@@H](F)C1 [Example 67, N-{[3-(8-{[(3S,4R)-3-fluoro-1-methylpiperidin-4-yl]amino}-3-[(trifluoromethyl)sulfanyl]indolizin-2-yl)-1,2,4-oxadiazol-5-yl]methyl}morpholine-4-carboxamide] | 1500 to 3000 nM | 750 to 1500 nM
